Read-outs that look alike come from different tables or passages of the source.

For assay [1], the system named is HT-29 (colon) cell line. As to the kind of experiment: MTT cytotoxic activity assay, HT-29. The format is cell-based. To be noted: Homo sapiens, 72 h. The protocol: (§1) All the synthesized tricyclic pyrrolo[2,3-d]pyrimidines 8a–j and 10a–f were evaluated for their cytotoxic activity on cancer cell lines derived from the most common cancers: breast (MCF-7), cervical (HeLa), and colon (HT-29). Human cancer cell lines were treated with synthesized compounds, using doxorubicin (DOX) as a positive control, at concentrations of the compounds ranging from 0.001 to 6.561 μM. Cells were incubated at 37 °C for 72 h before measurement, and IC50 values were determined graphically. In our previous research, the cytotoxic activity of compounds 6a and 6b was also evaluated on the same human cancer cell lines used in the current study.
(§2) The MCF-7, HeLa, and HT-29 cell lines, obtained from the Chinese Type Culture Collection, CAS (Shanghai, China), were used as models for cytotoxicity screening. The samples were dissolved in dimethyl sulfoxide (DMSO) (50 μM) and stored at 4 °C. Cell viability was determined using the MTT assay. For the MTT assay, the target cells were seeded in 96-well plates and treated with the synthesized samples for 72 h. Then, 5 mg/mL MTT was added to the culture medium, and 10 μL/well was added. The plate was then incubated in the dark at 37 °C for 4 h. The medium was removed, and 100 μL of dimethyl sulfoxide was added per well. OD570 was measured using Spectra Max M5 (Molecular Devices, CA, USA). Cell viability (%) = ODcompound /ODDMSO × 100%. IC50 values were calculated using GraphPad Prism 9 (CA, USA) by nonlinear regression of the log-transformed data (X Log[X]), with the log (inhibitor) vs. normalized response-variable slope tool.
In general terms: Formazan colour is commonly taken as a measure of viable cells.

Assay [2] deals with HeLa, MCF-7 and HT-29 cell lines. As to the kind of experiment: MTT cytotoxic activity, stated across the three cancer cell lines. The format is cell-based, human. To be noted: span over HeLa, MCF-7, HT-29; for IC50: Homo sapiens, read-out: IC50 across all three cell lines. Here is the method: as §1, §2
Another assay relates to MCF-7 (breast) cell line. As to the kind of experiment: MTT cytotoxic activity assay, MCF-7. The format is cell-based, human. The settings on record: for IC50: Homo sapiens, MCF7, 72 h. The protocol:
as §1, §2

The test system of assay [3] is HeLa (cervical) cell line. As to the kind of experiment: MTT cytotoxic activity assay, HeLa. The format is cell-based, human. The settings on record: 72 h; for IC50: Homo sapiens, HeLa. The protocol: as §1, §2
The test system of assay [4] is human embryonic kidney (HEK-293) cells. As to the kind of experiment: Cytotoxicity on non-cancerous HEK-293 cells. The format is cell-based. The settings on record: HEK293, read-out: IC50 (±SD), HEK-293. Here is the method: On the other hand, the inactivity of these leads on HeLa and MCF-7 cells (IC50 ≥ 50 µM) indicates specific tumor type selectivity. […] The selectivity index (SI) was then calculated as the ratio of the IC50 values for HEK-293 and HT-29 cells and is shown in Table 2.
as §2

Assay [5] concerns HeLa (cervical) cell line. Also on record: method as in PMID 36197552. The settings on record: previous research ref 29; cited from earlier work.
Assay [6] deals with HT-29 (colon) cell line. Set-up: method as in PMID 36197552. The settings on record: previous research ref 29; cited from earlier work.

A word on the IC50: it is the midpoint of a concentration-inhibition curve. Consider `Cn1c(-c2ccc(Cl)cc2)c(I)c2c(=O)n3c(nc21)CCCC3` [Compound 10c, 2-(4-Chlorophenyl)-3-iodo-1-methyl-6,7,8,9-tetrahydropyrido[1,2-a]pyrrolo[2,3-d]pyrimidin-4(1H)-one], for which the IC50 in the assay with HT-29 (colon) cell line [1] is 34.2 ± 1.6 µM; in the assay on MCF-7 (breast) cell line it was at least 50 µM; in assay [3], at least 50 µM. Further, in assay [2], the “IC50 across all three cell lines” value was “selective yet weaker activity”.

Consider `Cn1c(-c2ccc(Cl)cc2)cc2/c(=N\c3ccccc3)n3c(nc21)CCCC3` [Compound 8a, (E)-2-(4-Chlorophenyl)-1-methyl-N-phenyl-6,7,8,9-tetrahydropyrido[1,2-a]pyrrolo[2,3-d]pyrimidin-4(1H)-imine], for which the IC50 with HT-29 (colon) cell line [1] is 19.2 ± 0.91 µM; in the assay on MCF-7 (breast) cell line, at least 50 µM; in assay [3] it was at least 50 µM.

Turning to `Cn1c(-c2ccc(Cl)cc2)cc2/c(=N\c3ccc(C(F)(F)F)cc3)n3c(nc21)CCCC3` [Compound 8e, (E)-2-(4-Chlorophenyl)-1-methyl-N-(4-(trifluoromethyl)phenyl)-6,7,8,9-tetrahydropyrido[1,2-a]pyrrolo[2,3-d]pyrimidin-4(1H)-imine], the IC50 (in the assay with HT-29 (colon) cell line [1]; in the assay on MCF-7 (breast) cell line; in assay [3]) was at least 50 µM each time.

Turning to `Cn1c(-c2ccc(Br)cc2)cc2/c(=N\c3ccccc3)n3c(nc21)CCCCC3` [Compound 8f, (E)-2-(4-Bromophenyl)-1-methyl-N-phenyl-1,6,7,8,9,10-hexahydro-4H-pyrrolo[2’,3’:4,5]pyrimido[1,2-a]azepin-4-imine], the IC50 is 4.55 ± 0.23 µM in the assay on HT-29 (colon) cell line [1], 195 ± 0.07 µM in assay [4], at least 50 µM in the assay with MCF-7 (breast) cell line and at least 50 µM in assay [3].

For `COc1cccc2c1C(=O)c1c(O)c3c(c(O)c1C2=O)C[C@@](O)(C(=O)CO)C[C@@H]3O[C@H]1C[C@H](N)[C@H](O)[C@H](C)O1` [DOX, doxorubicin, reference compound], the IC50 with HT-29 (colon) cell line [1] was 0.82 ± 0.029 µM; in assay [2], 0.18 to 0.94 µM; with MCF-7 (breast) cell line, 0.18 ± 0.011 µM; in assay [3], 0.94 ± 0.016 µM.

As to `Cn1c(-c2ccc(Br)cc2)cc2c(=O)n3c(nc21)CCCCC3` [Compound 6b, 2-(4-Bromophenyl)-1-methyl-1,6,7,8,9,10-hexahydro-4H-pyrrolo[2’,3’:4,5]pyrimido[1,2-a]azepin-4-one], the IC50 is at least 50 µM in assay [5] and 7.61 ± 0.31 µM with HT-29 (colon) cell line [6].

`Cn1c(-c2ccc(Br)cc2)cc2/c(=N\c3ccc(Br)cc3)n3c(nc21)CCCCC3` [Compound 8i, (E)-N,2-Bis(4-bromophenyl)-1-methyl-1,6,7,8,9,10-hexahydro-4H-pyrrolo[2’,3’:4,5]pyrimido[1,2-a]azepin-4-imine]: the IC50 (with HT-29 (colon) cell line [1]; in the assay on MCF-7 (breast) cell line; in assay [3]) was at least 50 µM each time.

For `Cn1c(-c2ccc(Cl)cc2)cc2/c(=N\c3ccc(Br)cc3)n3c(nc21)CCCC3` [Compound 8d, (E)-N-(4-Bromophenyl)-2-(4-chlorophenyl)-1-methyl-6,7,8,9-tetrahydropyrido[1,2-a]pyrrolo[2,3-d]pyrimidin-4(1H)-imine], the IC50 (in the assay on HT-29 (colon) cell line [1]; with MCF-7 (breast) cell line; in assay [3]) was at least 50 µM in each case.

Consider `Cn1c(-c2ccc(Br)cc2)cc2/c(=N\c3ccc(C(F)(F)F)cc3)n3c(nc21)CCCCC3` [Compound 8j, (E)-2-(4-Bromophenyl)-1-methyl-N-(4-(trifluoromethyl)phenyl)-1,6,7,8,9,10-hexahydro-4H-pyrrolo[2’,3’:4,5]pyrimido[1,2-a]azepin-4-imine], for which the IC50 (in the assay with HT-29 (colon) cell line [1]; in the assay on MCF-7 (breast) cell line; in assay [3]) was at least 50 µM in each case.

On to `Cn1c(-c2ccc(Cl)cc2)c(Cl)c2c(=O)n3c(nc21)CCCC3` [Compound 10a, 3-Chloro-2-(4-chlorophenyl)-1-methyl-6,7,8,9-tetrahydropyrido[1,2-a]pyrrolo[2,3-d]pyrimidin-4(1H)-one], for which the half-inhibitory concentration (IC50) was 24.7 ± 1.13 µM in the assay on HT-29 (colon) cell line [1], 23 to 28 µM in assay [2], 27.5 ± 1.07 µM in the assay with MCF-7 (breast) cell line and 22.8 ± 0.98 µM in assay [3]. Also, the “IC50, HeLa” value in assay [3] is “moderate activity”.

Consider `Cn1c(-c2ccc(Br)cc2)cc2/c(=N\c3ccc(Cl)cc3)n3c(nc21)CCCCC3` [Compound 8h, (E)-2-(4-Bromophenyl)-N-(4-chlorophenyl)-1-methyl-1,6,7,8,9,10-hexahydro-4H-pyrrolo[2’,3’:4,5]pyrimido[1,2-a]azepin-4-imine], for which the IC50 (with HT-29 (colon) cell line [1]; in the assay with MCF-7 (breast) cell line; in assay [3]) was at least 50 µM each time.

Turning to `Cn1c(-c2ccc(Cl)cc2)cc2c(=O)n3c(nc21)CCCC3` [Compound 6a, 2-(4-Chlorophenyl)-1-methyl-6,7,8,9-tetrahydropyrido[1,2-a]pyrrolo[2,3-d]pyrimidin-4(1H)-one], the IC50 in assay [5] is 6.55 ± 0.31 µM; in the assay on HT-29 (colon) cell line [6] it was 24 ± 0.47 µM.

On to `Cn1c(-c2ccc(Cl)cc2)c(Br)c2c(=O)n3c(nc21)CCCC3` [Compound 10b, 3-Bromo-2-(4-chlorophenyl)-1-methyl-6,7,8,9-tetrahydropyrido[1,2-a]pyrrolo[2,3-d]pyrimidin-4(1H)-one], for which the 50% inhibitory concentration (IC50) is at least 50 µM in the assay with HT-29 (colon) cell line [1], 20.1 ± 0.93 µM in the assay on MCF-7 (breast) cell line and at least 50 µM in assay [3]. For the same molecule, the “IC50 across all three cell lines” value in assay [2] is “selective yet weaker activity”. Besides, in the assay with MCF-7 (breast) cell line (72 h), the “IC50, MCF-7” value is given as “moderate activity”.

In the case of `Cn1c(-c2ccc(Br)cc2)c(I)c2c(=O)n3c(nc21)CCCCC3` [Compound 10f, 2-(4-Bromophenyl)-3-iodo-1-methyl-1,6,7,8,9,10-hexahydro-4H-pyrrolo[2’,3’:4,5]pyrimido[1,2-a]azepin-4-one], the IC50 in the assay on HT-29 (colon) cell line [1] was 19 ± 0.92 µM; in the assay on MCF-7 (breast) cell line, at least 50 µM; in assay [3], at least 50 µM. Moreover, the “IC50 across all three cell lines” value in assay [2] is given as “selective yet weaker activity”.

For the molecule `Cn1c(-c2ccc(Cl)cc2)cc2/c(=N\c3ccc(F)cc3)n3c(nc21)CCCC3` [Compound 8b, (E)-2-(4-Chlorophenyl)-N-(4-fluorophenyl)-1-methyl-6,7,8,9-tetrahydropyrido[1,2-a]pyrrolo[2,3-d]pyrimidin-4(1H)-imine], the IC50 (with HT-29 (colon) cell line [1]; in the assay with MCF-7 (breast) cell line; in assay [3]) was at least 50 µM throughout.

In the case of `Cn1c(-c2ccc(Cl)cc2)cc2/c(=N\c3ccc(Cl)cc3)n3c(nc21)CCCC3` [Compound 8c, (E)-N,2-Bis(4-chlorophenyl)-1-methyl-6,7,8,9-tetrahydropyrido[1,2-a]pyrrolo[2,3-d]pyrimidin-4(1H)-imine], the IC50 (in the assay with HT-29 (colon) cell line [1]; in the assay with MCF-7 (breast) cell line; in assay [3]) was at least 50 µM in each case.

`Cn1c(-c2ccc(Br)cc2)cc2/c(=N\c3ccc(F)cc3)n3c(nc21)CCCCC3` [Compound 8g, (E)-2-(4-Bromophenyl)-N-(4-fluorophenyl)-1-methyl-1,6,7,8,9,10-hexahydro-4H-pyrrolo[2’,3’:4,5]pyrimido[1,2-a]azepin-4-imine]: the IC50 was 4.01 ± 0.2 µM in the assay with HT-29 (colon) cell line [1], 169 ± 0.1 µM in assay [4], at least 50 µM with MCF-7 (breast) cell line and at least 50 µM in assay [3].

Consider `Cn1c(-c2ccc(Br)cc2)c(Br)c2c(=O)n3c(nc21)CCCCC3` [Compound 10e, 3-Bromo-2-(4-bromophenyl)-1-methyl-1,6,7,8,9,10-hexahydro-4H-pyrrolo[2’,3’:4,5]pyrimido[1,2-a]azepin-4-one], for which the IC50 in the assay with HT-29 (colon) cell line [1] is 16 ± 0.75 µM; with MCF-7 (breast) cell line, at least 50 µM; in assay [3] it was at least 50 µM. In addition, in assay [2], the “IC50 across all three cell lines” value is reported as “selective yet weaker activity”.

With `Cn1c(-c2ccc(Br)cc2)c(Cl)c2c(=O)n3c(nc21)CCCCC3` [Compound 10d, 2-(4-Bromophenyl)-3-chloro-1-methyl-1,6,7,8,9,10-hexahydro-4H-pyrrolo[2’,3’:4,5]pyrimido[1,2-a]azepin-4-one], the IC50 (in the assay on HT-29 (colon) cell line [1]; in the assay with MCF-7 (breast) cell line; in assay [3]) was at least 50 µM each time.

The record behind these values is paper PMC12299203, “Pyrrolopyrimidines: Design, Synthesis and Antitumor Properties of Novel Tricyclic Pyrrolo [2,3-d]pyrimidine Derivatives” (Molecules, 2025).
